This assay addresses Protein farnesyltransferase subunit beta/geranylgeranyltransferase type-1 subunit alpha (Homo sapiens, UniProt P49354+P49356). The assay can be described thus: FTase Scintillation Proximity Assay. As to conditions: pH 7.5; 22 °C. On the procedure:
Compounds were tested as inhibitors of FTase in vitro using purified human enzyme to catalyze the reaction between [3H] FPP and a biotinylated peptide substrate. Reaction was terminated by addition of streptavidin scintillation proximity assay beads (Amersham), and the mixtures were subsequently analyzed by scintillation counting.

SMILES strings stand for the structures. Values joined by “and” are separate entries in the source; they are usually repeats but may differ in a detail not shown here. Equal values may be shown once.

Turning to `Cn1cncc1[C@@](N)(c1ccc(Cl)cc1)c1ccc2c(c1)c(-c1cccc(Cl)c1)cc(=O)n2C` (racemic) [Racemic mixture], the 50% inhibitory concentration (IC50) is 7.9 nM and 0.86 nM.

Usually IC50 stands for the concentration that gives 50% inhibition. Lower therefore signals higher potency.

(Values after BindingDB's records for PubMed 11196150 (Janssen Research Foundation, 2001).)
